Measurements as given in US9598363B2, “Plant growth regulating compounds” (SYNGENTA PARTICIPATIONS AG, priority 2013, dated 2017).

How the values were obtained:
[1] = tested on: Orobanche cumana Wallr. seeds; assay: Orobanche cumana seed germination test on glass fiber filter paper in petri dishes; format: in vivo; conditions: preconditioned Orobanche cumana seeds, N = 5 × 100 seeds
Description: The effect of compounds of Formula (I) on germination of Orobanche cumana Wallr. seeds was evaluated on glass fiber filter paper (GFFP) in petri dishes. Seeds were preconditioned at moisture and suitable temperature to become responsive to the specific chemical germination stimulants.
Test compounds were dissolved in DMSO (10,000 mg/L) and stored at room temperature in a desiccators with desiccants. The stock solutions were dissolved with deionised water to the appropriate final test concentration.
Seeds of O. cumana race ‘F’ were collected from sunflower fields in Manzanilla (Seville, Spain) in 2008 (seed lot IN153) and stored at room temperature. To separate seeds from heavy organic debris, a modified sucrose floatation technique as described by Hartman & Tanimonure (Plant Disease (1991), 75, p. 494) was applied. Seeds were filled into a separation funnel and stirred in water. When seeds floated to the surface, the water fraction containing heavy debris was discarded. Seeds were re-suspended in 2.5 M sucrose solution (specific gravity of 1.20) and heavy debris was allowed to settle down for 60 min. After removing debris, seeds were disinfected in 1% sodium hypochlorite solution and 0.025% (v/v) Tween 20 for 2 min. The seeds were decanted onto two layers of cheesecloth, rinsed with sterile deionised water and re-suspended in sterile deionised water. 2 mL of the seed suspension containing approximately 150-400 seeds was spread evenly on two layers of sterile glass fiber filter paper disc ([…]) in Petri dishes (Ø9 cm). After wetting the discs with 3 mL sterile deionised water, petri dishes were sealed with parafilm. Seeds were incubated for 10 days at 20° C. in the dark for seed conditioning. The upper disc with conditioned seeds was briefly dried, transferred to a petri dish lined with a dry GFFP disc, and wetted with 6 mL of the appropriate test solution. The compounds of Formula (I) were tested at concentrations of 0.01, 0.1, and 1 mg/L. The strigolactone analogue GR24 (commercially available as a mixture of isomers) was included as positive control and 0.01% DMSO as negative control. All treatments were tested in five replicates. Seeds were re-incubated at 20° C. in the dark and examined for germination 10 days later. The radicles of germinated seeds were stained for 5 min with blue ink (PELIKAN #4001, Germany) in 5% acetic acid according to Long et al. (Seed Science Research (2008), 18, p. 125). After staining, seeds were photographed using a camera stand mounted with a digital SLR camera (Canon EOS 5D). Germination of 100 seeds per replicate was evaluated on digital images. Seeds were considered germinated when the radicle protruded from the seed coat.

[2] = 1 mg/L, control (0.01% DMSO): 0.75% germination
[3] = concentration 0.01 mg/L, control (0.01% DMSO): 1.4% germination
[4] = concentration 0.1 mg/L, control (0.01% DMSO): 1.4% germination
[5] = concentration 1 mg/L, control (0.01% DMSO): 1.4% germination

Row | SMILES | melting point [°C] | Germination (%) [1, 2] [%] | Germination (%) [1, 3] [%] | Germination (%) [1, 4] [%] | Germination (%) [1, 5] [%]
1 | C#CCN1C(=O)C(C)=CC1Oc1ccc(Br)cc1 (stereo not shown) | 92 to 94 |  |  |  | 
2 | COCN1C(=O)C(C)=CC1OC(=O)NCc1ccccc1 (stereo not shown) [Ia-1, [1-(methoxymethyl)-4-methyl-5-oxo-2H-pyrrol-2-yl]N-benzylcarbamate] |  | 86.8 |  |  | 
3 | CC1=CC(OC(=O)NCc2ccccc2)N(C)C1=O (stereo not shown) [Ia-2, (1,4-dimethyl-5-oxo-2H-pyrrol-2-yl) N-benzylcarbamate] | 106 | 76.6 |  |  | 
4 | CON1C(=O)C(C)=CC1OC(=O)NCc1ccccc1 (stereo not shown) [Ia-3, (1-methoxy-4-methyl-5-oxo-2H-pyrrol-2-yl) N-benzylcarbamate] |  | 44.8 |  |  | 
5 | CC1=CC(OC(=O)NCc2ccccc2)N(CC(F)(F)F)C1=O (stereo not shown) [Ia-5, [4-methyl-5-oxo-1-(2,2,2-trifluoroethyl)-2H-pyrrol-2-yl]N-benzylcarbamate] |  | 16.2 |  |  | 
6 | CC1=CC(OC(=O)NCc2ccccc2)N(C2CC2)C1=O (stereo not shown) [Ia-6, (1-cyclopropyl-4-methyl-5-oxo-2H-pyrrol-2-yl) N-benzylcarbamate] |  | 76.4 |  |  | 
7 | CC1=CC(OC(=O)NCc2ccccc2)N(C)C1=O (stereo not shown) [drawing 24] |  |  | 60.8 | 67.4 | 76.6
8 | CC1=CC(OC(=O)NCc2ccccc2)OC1=O (stereo not shown) [reference compound] |  |  | 8.8 | 41.8 | 82.6
9 | CC1=CC(O/C=C2/C(=O)OC3c4ccccc4CC23)OC1=O (stereo not shown) [reference compound] |  |  | 65 | 78.4 | 86.6
